The values that follow come from PubChem BioAssay (NCI).

Values joined by “and” are separate entries in the source; they are usually repeats but may differ in a detail not shown here. Equal entries are not always repeated.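 1) Cells in 96-well plates. 2) Compound, 48 h, 5 concentrations. 3) Linear interpolation between surrounding doses. 4) Unreached endpoint = highest concentration. GI50: concentration for 50% inhibition of growth. TGI is the concentration that stops growth completely.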 Bounds are passed on as bounds.

Common to all, as to experiment: NCI-60 cell line screen, 48 h
Experiment [1] concerns SK-OV-3 ovarian.
Experiment [2] concerns SK-MEL-5 melanoma.
The test system of experiment [3] is HOP-62 NSCLC.
The test system of experiment [4] is HCT-116 colon.
The test system of experiment [5] is HCC-2998 colon.
The subject of experiment [6] is SF-268 CNS.
The subject of experiment [7] is MALME-3M melanoma.
In experiment [8] the test system is PC-3 prostate.
The test system of experiment [9] is DU-145 prostate.
Experiment [10] concerns NCI-H522 lung.

In the case of `c1ccc(CNCCN(CCNCc2ccccn2)Cc2ccc3ccccc3c2)nc1`, the GI50 in experiment [1] was 1.94 µM; in experiment [2], 1.76 µM; in experiment [3] it was 2.17 µM; in experiment [4], 2.37 µM; in experiment [5] it was 1.83 µM; in [6] it was 2.89 µM. The GI50 in experiment [7] was 1.65 µM; in [8] it was 1.92 µM; in experiment [9] it was 2.79 µM. Also, the TGI was found to be 5.11 µM in [1]; 3.16 µM in experiment [2]; 6.69 µM in [3]; 8.36 µM in experiment [4]; 3.39 µM in experiment [5]; 12.3 µM in experiment [6]. The TGI in experiment [7] is 3.63 µM; in [8], 6.13 µM; in experiment [9], 10.3 µM.

Turning to `O=C1C=CC(=O)c2c(O)c3c(c(O)c21)C[C@H](O)[C@H](O)[C@@H]3O`, the TGI came to 33 µM in [1]; 3.18 µM in [2]; 13.2 µM in [3]; 1.73 µM in experiment [4]; 21.3 µM in experiment [5]; 8.02 µM in experiment [6]. Besides, the TGI in experiment [7] is 2.6 µM; in experiment [8], 8.34 µM; in experiment [9] it was 6.87 µM.

As for `CC1NC(=O)C2=C1C(=O)NC(=O)C2` (stereo not drawn), the GI50 in experiment [2], in [3], in experiment [4], in [10], in experiment [5] and in experiment [6] was above 100 µM each time. Moreover, the GI50 in [8] and in experiment [9] was above 100 µM each time. Moreover, the TGI in experiment [2], in [3], in experiment [4], in [10], in experiment [5] and in [6] was above 100 µM in each case. Moreover, the TGI in experiment [8] and in [9] was above 100 µM each time.

On to `O=C(O)C1[O][Sb][O]C(C(=O)O)C1O` (stereo not drawn), for which the GI50 in experiment [2], in experiment [3], in experiment [4], in [10], in experiment [6] and in experiment [7] was above 100 µM throughout. The GI50 in experiment [8] and in [9] was above 100 µM in each case. The TGI in experiment [2], in experiment [3], in experiment [4], in experiment [10], in experiment [6] and in experiment [7] was above 100 µM throughout. For the same compound, the TGI in experiment [8] and in [9] was above 100 µM throughout.

Consider `NS(=O)(=O)c1cc(C(=O)O)c(O)c2ccccc12`, for which the TGI in experiment [1], in [2], in [3], in experiment [4], in [10] and in experiment [6] was above 100 µM in each case. Moreover, the TGI in experiment [7], in [8] and in experiment [9] was above 100 µM in each case.

As for `C/C=C1/CC(C)C(C)(O)C(=O)OCC2C(O)CN3CCC(OC1=O)C23` (stereo not drawn), the TGI in experiment [1], in experiment [2], in experiment [3], in [4], in experiment [10] and in experiment [5] was above 100 µM throughout. For the same compound, the TGI in experiment [6], in experiment [8] and in [9] was above 100 µM throughout.

On to `O=C1O/C(=C/c2ccccc2)C(c2ccccc2)=C1O`, for which the TGI in [1] was above 100 µM; in [2] it was 80.9 µM; in [3], 94.3 µM; in experiment [4], above 100 µM; in experiment [10], above 100 µM; in [5], above 100 µM. The TGI in experiment [7] is above 100 µM; in [8], above 100 µM; in [9] it was 97 µM.

Turning to `CC(C)CCCCCCCCCCCCC(=O)NCC(=O)NC1C(O)C(O)C(Nc2ncnc3nc[nH]c23)OC1C(O)CO` (stereo not drawn), the GI50 in experiment [1] was 0.005 µM; in [3], below 1e-05 µM; in experiment [5], below 1e-05 µM; in [8], below 1e-05 µM; in [9], below 1e-05 µM. Moreover, the TGI in [1] was 0.00344 µM and 0.0224 µM; in experiment [7], 0.0125 µM and 0.00724 µM.

In the case of `O=[N+]([O-])c1cc([N+](=O)[O-])c(Nn2c3ccccc3c3ccccc32)c([N+](=O)[O-])c1`, the GI50 was 0.216 µM in [2]; 0.344 µM in experiment [3]; 0.302 µM in experiment [4]; 0.253 µM in [10]; 0.44 µM in experiment [5]; 0.359 µM in experiment [6]. Besides, the GI50 in experiment [7] is 0.236 µM; in experiment [8], 0.316 µM; in experiment [9], 0.442 µM. Besides, the TGI is 4.53 µM and 0.506 µM in experiment [2]; 6.11 µM and 2.07 µM in experiment [3]; 1.18 µM in [4]; 1.88 µM and 0.838 µM in experiment [10]; 12.5 µM and 2.63 µM in [5]; 39 µM and > 100 µM in experiment [6]. Moreover, the TGI is 4.88 µM and 0.733 µM in experiment [7]; 7.37 µM and 11.3 µM in experiment [8]; 20.1 µM and 18.7 µM in experiment [9].

In the case of `O=C(c1ccc(Cl)cc1)C(O)c1ccc(Cl)cc1` (stereo not drawn), the TGI in experiment [2], in [3], in experiment [4], in [10], in [5] and in experiment [6] was above 100 µM throughout. The TGI in experiment [7], in experiment [8] and in [9] was above 100 µM throughout.

For the compound `CCNC(=O)Oc1ccc(/C(=C(/C)Cc2ccc(OC)cc2)c2ccc(OCCN(CC)CC)cc2)cc1`, the GI50 is 2.84 µM in experiment [1]; 1.55 µM in experiment [2]; 1.68 µM in experiment [3]; 1.57 µM in [4]; 2.16 µM in experiment [10]; 1.7 µM in experiment [5]. The figures for the GI50 in experiment [6], in experiment [7] and in experiment [9] were 1.98 µM, 1.64 µM and 2.36 µM, respectively. For the same compound, the TGI in experiment [1] came to 13.3 µM; in experiment [2] it was 2.93 µM; in experiment [3], 4.14 µM; in experiment [4], 3.11 µM; in [10], 4.17 µM; in [5] it was 3.29 µM. Besides, the TGI was found to be 4.75 µM in [6], 3.22 µM in experiment [7] and 5.83 µM in [9].

`CCCCCCCCCC[C@H](O)[C@H](O)CC[C@@H](O)[C@H]1CC[C@@H]([C@H]2CC[C@H](CCCCCCC[C@@H](O)CC3=C[C@H](C)OC3=O)O2)O1`: the GI50 in experiment [2] is 0.0863 µM; in experiment [3], 11.6 µM; in [4], 0.966 µM; in [6] it was 29.3 µM; in experiment [8], 11.7 µM. The TGI was 3.46 µM and 15.9 µM in [2]; 69.8 µM in experiment [3]; 61.6 µM in experiment [4]; 62.1 µM in experiment [10]; 47 µM in [5]; above 100 µM in experiment [6]. Besides, the TGI in [7] was found to be 48.3 µM; in experiment [8], 40.7 µM.

For the compound `Cc1cc(C)c(-c2c(N)cc(Br)cc2Br)c(N)c1`, the GI50 is 3.53 µM in [1]; 3.82 µM in experiment [2]; 4.35 µM in experiment [4]; 4.85 µM in experiment [10]; 10.9 µM in experiment [5]; 7.86 µM in [6]. Also, the GI50 is 5.09 µM in [7], 6.42 µM in experiment [8] and 4.33 µM in experiment [9]. The TGI in experiment [1] was determined as 14.3 µM; in experiment [2] it was 13.9 µM; in experiment [4], 15.6 µM; in [10] it was 19.1 µM; in [5] it was 23.1 µM; in experiment [6] it was 21.5 µM. Besides, the TGI in experiment [7] was determined as 20.3 µM; in experiment [8], 26.5 µM; in [9], 16.4 µM.

In the case of `O=c1c(Cl)c(Cl)cnn1CCCl`, the TGI was 21.7 µM in [1]; 15.2 µM in experiment [2]; 34.5 µM in [3]; 17 µM in [4]; 1.12 µM in experiment [10]; 9.39 µM in experiment [5]. Besides, the TGI in experiment [6] amounted to 14.1 µM; in [7] it was 7.14 µM; in [9], 34 µM.

`Cc1cn(Cc2ccc(C34CC5CC(CC(C5)C3)C4)c(O)c2)c(=O)[nH]c1=O`: the GI50 in experiment [1] was 19.2 µM; in experiment [2], 4.37 µM; in [3], 12.9 µM; in experiment [4] it was 10.7 µM; in [10] it was 8.04 µM; in experiment [5], 9.45 µM. Besides, the results for the GI50 in [6], in experiment [7] and in [9] were 12.7 µM, 14.6 µM and 13.7 µM, respectively. The TGI in experiment [1] is 44.3 µM; in experiment [2] it was 15.8 µM; in [3], 25.6 µM; in experiment [4], 22.5 µM; in [10], 24.2 µM; in [5], 21.4 µM. Besides, the TGI in experiment [6] stood at 41.8 µM; in experiment [7], 29.7 µM; in experiment [9], 26.6 µM.

For `Cc1cc2c(-c3nc4ccccn4c3N)c(O)c(O)cc2c(O)c1-c1c(C)cc2c(-c3nc4ccccn4c3N)c(O)c(O)cc2c1O`, the GI50 in experiment [1] is 0.805 µM; in experiment [2] it was 0.554 µM; in experiment [3] it was 1.15 µM; in experiment [4] it was 0.163 µM; in experiment [10], 0.625 µM; in experiment [5] it was 1.59 µM. Moreover, the values for the GI50 in experiment [6], in experiment [7] and in [8] were 0.653 µM, 0.81 µM and 0.692 µM, respectively. The TGI in experiment [1] was 6.03 µM; in [2], 1.66 µM; in experiment [3], above 25 µM; in [4], above 25 µM; in [10], 4.88 µM; in [5], above 25 µM. For the same compound, the TGI in experiment [6], in experiment [7] and in [8] was above 25 µM throughout.

On to `Nc1nc(/C=C\c2ccccc2)nc(N2CCN(c3ccccc3)CC2)n1`, for which the GI50 in experiment [2] is 21.1 µM; in experiment [3] it was 23.9 µM; in [4], 13.5 µM; in [10] it was 28.2 µM; in [5], 17.9 µM; in [6], 42.2 µM. Also, the GI50 in experiment [8] is 27.9 µM; in [9], 39.5 µM. Also, the TGI in experiment [2] is 45 µM; in [3] it was 86.3 µM; in experiment [4], 31.7 µM; in [10] it was 84.9 µM; in experiment [5], 41.5 µM; in experiment [6], above 100 µM. The TGI in experiment [8] and in experiment [9] was above 100 µM throughout.

For `CC1=CC(C)(C)NN1C1=NS(=O)(=O)c2ccccc2N1C`, the TGI in experiment [1], in experiment [2], in experiment [3], in experiment [4], in experiment [10] and in experiment [5] was above 100 µM each time. In addition, the TGI in experiment [6], in experiment [8] and in experiment [9] was above 100 µM each time.

`CC(C)COc1nc2c(c(=O)n(C)c(=O)n2C)n1C`: the GI50 in experiment [1], in [2], in experiment [3], in [4], in experiment [5] and in [6] was above 100 µM throughout. Further, the GI50 in [7], in experiment [8] and in experiment [9] was above 100 µM each time. Also, the TGI in experiment [1], in experiment [2], in experiment [3], in experiment [4], in experiment [5] and in [6] was above 100 µM in each case. For the same compound, the TGI in experiment [7], in experiment [8] and in experiment [9] was above 100 µM throughout.

As to `O=C(NCC1CCCO1)c1ccc(NC2=C(Cl)C(=O)N(Cc3ccccc3)C2=O)cc1` (stereo not drawn), the GI50 is 18.6 µM in experiment [1]; 14.6 µM in experiment [2]; 13.3 µM in experiment [4]; 1.92 µM in experiment [10]; 13.1 µM in experiment [5]; 13.2 µM in [6]. The GI50 was 11.4 µM in [8] and 12.3 µM in [9]. In addition, the TGI in experiment [1] is 36.6 µM; in experiment [2], 33.3 µM; in [4], 26.2 µM; in experiment [10], 10.8 µM; in [5], 27.1 µM; in [6] it was 45.4 µM. Besides, the TGI was found to be 25 µM in experiment [8] and 30 µM in experiment [9].
